How the values were obtained:
[1] = target: T1, human Kv1.5 potassium channel (Homo sapiens, UniProt P22460); assay: Whole cell patch clamp, inhibition of Kv1.5 current in CHO cells; assay type: cell-based; conditions: for IC50: Kv1.5, whole cell patch clamp, approx. values, read-out: 50% Channel Inhibition (IC50)
T1 construct: Error-free parts of these clones were then ligated together to form a complete cDNA construct; expressed in transfected cells
Experimental: (§1) 4. Electrophysiological Studies
(§2) Electrophysiological recordings of native channels in cells and cell lines, cloned and expressed channels in cells (e.g., CHO cells) as well as isolated cardiac myocytes were performed using the whole cell configuration of the patch clamp technique (Hamill et al., Pflugers Archiv 391:85, 1981). Cell lines were prepared as described above (cloning, etc.). Rat and human cardiac myocytes were isolated using the methods described in Castle and Slawsky, J. Pharmacol. Exp. Ther. 264:1450, 1993 and Wang et al., Circ. Res., 73:1061, 1993, respectively. Cells were plated on glass coverslips at a density of 2×10^4 cells/coverslip and used within 24-48 hours for cultured cell lines and within 6 hours for isolated cardiac myocytes. The coverslips were placed in a small chamber (volume ~200 μl) on the mechanical stage of an inverted microscope and perfused (2 ml/min) with extracellular recording solution. Drug application was achieved via a series of narrow-bore glass capillary tubes (inner diameter ~100 μm) positioned approximately 200 μm from the cell. Application of voltage-clamp pulses, data acquisition and the analysis were controlled by a 75 MHz Pentium computer using pCLAMP 6.0 software (Axon Instruments Inc. Foster City, Calif.).
500 ms voltage clamp steps from -80 mV to +60 mV were applied to individual cells every 20 seconds for Kv1.5 and every 60 seconds for Kv1.3.

human T lymphocytes = assay: T-lymphocyte proliferation assay (PHA-stimulated 3H-thymidine incorporation); assay type: cell-based; conditions: compared to PHA-only controls; 10 μM compound 4, 1 nM margatoxin, 50 nM charybdotoxin; PHA 1.25 or 2.5 μg/ml
Experimental: Lymphocyte Proliferation Studies
(§4) A T-lymphocyte proliferation assay was performed using human peripheral T-lymphocytes isolated by centrifugation on lymphocyte separation medium (Organon Teknika) followed by adherence of non-T cells on nylon wool. […] 100 μl of cells/well was dispensed into a 96-well plate. Cells were stimulated with phytohemoagglutinin (1.25 or 2.5 μg/ml final concentration) in the presence or absence of various antagonists for 3 days. On the fourth day, cells were pulsed with [^3 ]thymidine for an additional 18 hours and harvested on glass fiber filtermats with extensive washing. Mats were counted in a Wallac Microbeta liquid scintillation counter using melt-on scintillant. Additional wells were counted at the end of the 18 hour period to determine if the drug treatments caused cellular toxicity.

[2] = target: T2, human Kv1.3 potassium channel (Homo sapiens, UniProt P22001); assay: 86Rubidium efflux from CHO cell monolayers expressing Kv1.3; assay type: cell-based; conditions: for inhibition of 60 mM KCl evoked increase in 86Rb efflux rate (Kv1.3): preexposure to 5 nM margatoxin or 10 μM compound 4, 15 minute period, n=4
Experimental: Stable clones were tested for voltage-gated potassium channel expression using a ^86 rubidium (^86 Rb) ion flux assay (see below for methodology).
(§5) 2. ^86 Rubidium Efflux From Cell Monolayers
CHO cells stably transfected with either human Kv1.5 or Kv1.3 as well as nontransfected cells were grown to approximately 90% confluence in 24 well tissue culture plates. Tissue culture growth medium was then removed and replaced with 1 ml of Iscoves modified DMEM containing ^86 Rb at a concentration of 1 μCi/ml and incubated for three hours at 37° C. to permit intracellular uptake of the isotope. At the end of the incubation period, the ^86 Rb solution was aspirated and the cells washed three times with Earls Balanced Salt Solution (EBSS). The cells were then incubated for 15 minutes at room temperature in 0.6 ml/well of EBSS or EBSS containing the compounds to be tested. At the end of this period, a 0.3 ml sample was taken for analysis to determine basal efflux of ^86 Rb. To each well was then added 0.3 ml of a modified high KCl EBSS, containing 125 mM KCl (NaCl replaced by KCl; final KCl concentration in each well was 65 nM) and the compounds to be tested. The high KCl concentration was utilized to depolarize the cells to membrane potentials that would activate Kv1.3 and Kv1.5 channels. After a 15 minute incubation, another 0.3 ml sample was taken for analysis. Finally 0.3 ml of 0.2% sodium dodecyl sulfate in EBSS was added to each well to lyse the cells. Of this lysate 0.3 ml was taken for analysis to determine final cell content of ^86 Rb. Samples were counted in a Wallac Microbeta Liquid Scintillation counter by Cerenkov emission. Efflux was expressed as a percentage of the initial cell content of ^86 Rb.
(§6) Values are means ±s.e. (n=4) of the amount of ^86 Rb released in a 15 minute period and are expressed as a percentage of the initial cell content.

[3] = target: T1, human Kv1.5 potassium channel; assay: 86Rubidium efflux from CHO cell monolayers expressing Kv1.5; assay type: cell-based; conditions: 10 μM compound 4; 15 minute period; n=4
Experimental: as §5
CHO cells stably transfected with either human Kv1.5 or Kv1.3 as well as nontransfected cells were grown to approximately 90% confluence in 24 well tissue culture plates. Tissue culture growth medium was then removed and replaced with 1 ml of Iscoves modified DMEM containing ^86 Rb at a concentration of 1 μCi/ml and incubated for three hours at 37° C. to permit intracellular uptake of the isotope. At the end of the incubation period, the ^86 Rb solution was aspirated and the cells washed three times with Earls Balanced Salt Solution (EBSS). The cells were then incubated for 15 minutes at room temperature in 0.6 ml/well of EBSS or EBSS containing the compounds to be tested. At the end of this period, a 0.3 ml sample was taken for analysis to determine basal efflux of ^86 Rb. To each well was then added 0.3 ml of a modified high KCl EBSS, containing 125 mM KCl (NaCl replaced by KCl; final KCl concentration in each well was 65 nM) and the compounds to be tested. […] Samples were counted in a Wallac Microbeta Liquid Scintillation counter by Cerenkov emission. Efflux was expressed as a percentage of the initial cell content of ^86 Rb.
as §6

[4] = target: T2, human Kv1.3 potassium channel; assay: Fluorescence measurement of cell membrane potential (DiBac4(3)) in CHO cells expressing Kv1.3; assay type: cell-based; conditions: 10 μM; compared with margatoxin; CHO cells expressing human Kv1.3
Experimental: Fluorescence Measurement of Cell Membrane Potential
CHO cells stably transfected with genes encoding human voltage gated potassium channels were grown to 80-90% confluency in 96 well tissue culture plates. On the experimental day, they were repeatedly contacted with a modified EBSS (116 mM NaCl, 5.4 mM KCl, 1.8 mM CaCl2, 0.8 mM MgCl2, 20 mM HEPES, 5 nM glucose; pH 7.4, 300 mOsm) plus 5 μM of the voltage-sensitive oxonol dye, bis-(1,3-dibutylbarbituric acid)trimethine oxonol (DiBac4 (3)). Dibac4 (3) binds to intracellular proteins in a membrane potential-dependent process, changing the effective concentration of fluorescing molecules. […] The cells in each well were then incubated in EBSS+5 μM DiBac4 (3) at 37° C. for 30 minutes. The 96 well plate was then placed in a 35° C. temperature controlled chamber within a laser based fluorescence imaging plate reader (NovelTech Inc.). Data were collected every 60 seconds for periods ranging from 20 to 40 min. To permit comparative quantification of the magnitude of drug induced changes in the fluorescence signal, changes were compared to the addition of EBSS+5 μM DiBac4 (3) without drug and EBSS+5 μM DiBac4 (3)+30 mM KCl without drug, and expressed as a percentage of the increase in fluorescence induced by exposure of the cells to 30 mM KCl. […]

nontransfected CHO cells = assay: Fluorescence measurement of cell membrane potential (DiBac4(3)) in non-transfected CHO cells; assay type: cell-based, Chinese hamster; conditions: 10 μM; CHO-WT
[5] = target: T2, human Kv1.3 potassium channel; assay: Whole cell patch clamp, inhibition of Kv1.3 current in CHO cells; assay type: cell-based; conditions: 10 μM, 5 min preincubation; steps -80 mV to +60 mV every 60 seconds
Experimental: as §1
as §2, with “Calif.). […]” for “Calif.).”

[6] = test system: IKur in human atrial myocytes; assay: Inhibition of IKur currents in isolated human atrial myocytes; assay type: cell-based
Experimental: as §1, §2

human atrial myocytes = assay: Action potential prolongation in isolated human atrial myocytes; assay type: cell-based
Experimental: as §1, §2
(§3) A functional consequence of potassium channel inhibition in the heart is a prolongation of the action potential duration. […]

rat cardiac myocytes = assay: Action potential prolongation in rat cardiac myocytes; assay type: cell-based; conditions: 1 μM, 2 min application
Experimental: as §1, §2, §3

human T-lymphocytes = assay: Toxicity to human T-lymphocytes (cell viability); assay type: cell-based; conditions: 10 μM, 90 hours of exposure
Experimental: as §4

T2 sequence (P22001 whole entry): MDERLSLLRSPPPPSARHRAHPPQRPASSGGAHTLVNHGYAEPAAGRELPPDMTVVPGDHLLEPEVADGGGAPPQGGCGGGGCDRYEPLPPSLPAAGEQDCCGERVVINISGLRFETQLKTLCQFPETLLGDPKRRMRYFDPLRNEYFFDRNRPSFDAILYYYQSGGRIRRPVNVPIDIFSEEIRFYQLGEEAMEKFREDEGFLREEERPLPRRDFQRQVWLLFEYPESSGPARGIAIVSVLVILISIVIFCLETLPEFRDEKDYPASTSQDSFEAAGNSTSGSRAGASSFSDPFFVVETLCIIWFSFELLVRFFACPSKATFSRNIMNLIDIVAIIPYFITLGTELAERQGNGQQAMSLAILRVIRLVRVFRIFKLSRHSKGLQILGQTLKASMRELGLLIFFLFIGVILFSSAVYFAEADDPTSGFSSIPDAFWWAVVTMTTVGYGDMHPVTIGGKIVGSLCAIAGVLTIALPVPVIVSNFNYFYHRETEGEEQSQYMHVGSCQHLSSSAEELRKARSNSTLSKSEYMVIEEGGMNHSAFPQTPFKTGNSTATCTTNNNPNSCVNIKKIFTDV
T1 sequence (P22460 whole entry): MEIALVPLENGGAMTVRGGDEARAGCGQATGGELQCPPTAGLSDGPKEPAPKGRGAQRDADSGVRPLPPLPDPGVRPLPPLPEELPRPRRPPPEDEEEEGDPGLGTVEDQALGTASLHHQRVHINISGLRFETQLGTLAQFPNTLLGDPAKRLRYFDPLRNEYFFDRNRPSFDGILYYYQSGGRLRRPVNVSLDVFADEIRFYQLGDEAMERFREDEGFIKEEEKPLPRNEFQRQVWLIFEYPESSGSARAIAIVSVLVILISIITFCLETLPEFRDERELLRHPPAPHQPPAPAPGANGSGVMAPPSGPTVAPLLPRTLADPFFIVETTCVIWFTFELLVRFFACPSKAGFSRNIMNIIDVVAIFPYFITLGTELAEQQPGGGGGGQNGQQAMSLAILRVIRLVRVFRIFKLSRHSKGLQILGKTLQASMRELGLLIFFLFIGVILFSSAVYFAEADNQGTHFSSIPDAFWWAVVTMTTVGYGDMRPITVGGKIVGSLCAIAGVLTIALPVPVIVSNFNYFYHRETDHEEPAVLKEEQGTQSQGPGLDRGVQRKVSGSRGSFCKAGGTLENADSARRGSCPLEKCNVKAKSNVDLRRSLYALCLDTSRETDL

## CCc1ccc(S(=O)(=O)NC2c3cc(NC(=O)c4ccccc4F)ccc3CC2O)cc1 (stereo not drawn) [Compound 17]
[1]
  IC50: > 1000 nM

## charybdotoxin
Human T lymphocytes
  inhibition of lymphocyte proliferation: inhibited lymphocyte proliferation to a similar extent

## COc1cccc(C(=O)Nc2ccc3c(c2)C(NS(=O)(=O)c2ccccc2)C(O)C3)c1 (stereo not drawn) [Compound 12]
[1]
  IC50: > 1000 nM

## CCc1ccc(S(=O)(=O)N[C@H]2c3cc(NC(=O)c4cccc(OC)c4)ccc3C[C@@H]2O)cc1 (relative stereo) [Compound 4, 1-(p-ethylphenyl)sulfimide-2-hydroxy-6-(m-methoxy)benzamido-indane]
[2]
  inhibition of 60 mM KCl evoked increase in 86Rb efflux rate (Kv1.3): completely abolished
[3]
  inhibition of KCl evoked increase in 86Rb efflux rate (Kv1.5): completely inhibited
[4]
  cell membrane depolarization (Kv1.3): produced a depolarization similar in magnitude to that induced by the Kv1.3-specific blocking toxin margatoxin
Nontransfected CHO cells
  compound-induced depolarization (nontransfected cells): absent
[1]; 10 μM, 5 min preincubation, steps -80 mV to +60 mV every 20 seconds
  inhibition of potassium currents (Kv1.5): inhibition of potassium currents
[1]
  IC50: ~100 nM
[5]
  inhibition of potassium currents (Kv1.3): inhibition of potassium currents
[6]
  inhibition at 1 µM: > 50%
Human atrial myocytes
  activation at 1 µM: > 50%
Rat cardiac myocytes
  prolongation of the action potential (rat): prolongs the action potential
Human T lymphocytes
  inhibition of lymphocyte proliferation: inhibited lymphocyte proliferation to a similar extent
Human T-lymphocytes
  cell viability / toxicity to human T-lymphocytes: no decrease in cell viability

## CCc1ccc(S(=O)(=O)NC2c3cc(NC(=O)c4cccc(C)c4)ccc3CC2O)cc1 (stereo not drawn) [Compound 2]
[1]
  IC50: ~1000 nM

## margatoxin (TIINVKCTSPKQCLPPCKAQFGQSAGAKCMNGKCKCYPH; UniProt P40755 1-39, looked up)
[2]; margatoxin present, four positive Kv1.3 clones
  inhibition of KCl-stimulated 86Rb efflux: approximately 95%
[2]
  inhibition of 60 mM KCl evoked increase in 86Rb efflux rate (Kv1.3): completely abolished
Human T lymphocytes
  inhibition of lymphocyte proliferation: inhibited lymphocyte proliferation to a similar extent

## CCc1ccc(S(=O)(=O)NC2c3cc(NC(=O)CCC4CCCC4)ccc3CC2O)cc1 (stereo not drawn) [Compound 11]
[1]
  IC50: ~1000 nM

## COc1cccc(C(=O)Nc2ccc3c(c2)C(NS(=O)(=O)c2ccc4ccccc4c2)C(O)C3)c1 (stereo not drawn) [Compound 16]
[1]
  IC50: ~1000 nM

## CCc1ccc(S(=O)(=O)NC2c3cc(NC(=O)C4CC5CCC4CC5)ccc3CC2O)cc1 (stereo not drawn) [Compound 13]
[1]
  IC50: ~1000 nM

## COc1ccc(S(=O)(=O)NC2c3cc(NC(=O)c4cccc(OC)c4)ccc3CC2O)cc1 (stereo not drawn) [Compound 10]
[1]
  IC50: > 1000 nM

## CCCCCOc1ccc(C(=O)Nc2ccc3c(c2)C(NS(=O)(=O)c2ccc(CC)cc2)C(O)C3)cc1 (stereo not drawn) [Compound 15]
[1]
  IC50: ~1000 nM

Reference: patent US6083986A, “Potassium channel inhibitors” (ICAgen, Inc., priority 1997, dated 2000)
